PubChem BioAssay (NCI)
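1) Cells in 96-well plates. 2) Compound, 48 h, 5 concentrations. 3) Linear interpolation between surrounding doses. 4) Unreached endpoint = highest concentration. GI50 is the concentration that inhibits growth by half. TGI denotes the concentration required for complete inhibition of growth.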

Experiments:
Assay in all cases: growth of human tumour cells (NCI), 48 h
A498 renal = system: A498 renal
HS 578T breast = system: HS 578T breast
HT29 colon = system: HT29 colon
MOLT-4 leukemia = system: MOLT-4 leukemia
OVCAR-5 ovarian = system: OVCAR-5 ovarian
PC-3 prostate = system: PC-3 prostate
RPMI-8226 leukemia = system: RPMI-8226 leukemia
SF-268 CNS = system: SF-268 CNS
SK-MEL-5 melanoma = system: SK-MEL-5 melanoma
UO-31 renal = system: UO-31 renal

SMILES | GI50 (A498 renal) [µM] | TGI (A498 renal) [µM] | GI50 (HS 578T breast) [µM] | TGI (HS 578T breast) [µM] | GI50 (HT29 colon) [µM] | TGI (HT29 colon) [µM] | GI50 (MOLT-4 leukemia) [µM] | TGI (MOLT-4 leukemia) [µM] | GI50 (OVCAR-5 ovarian) [µM] | TGI (OVCAR-5 ovarian) [µM] | GI50 (PC-3 prostate) [µM] | TGI (PC-3 prostate) [µM] | GI50 (RPMI-8226 leukemia) [µM] | TGI (RPMI-8226 leukemia) [µM] | GI50 (SF-268 CNS) [µM] | TGI (SF-268 CNS) [µM] | GI50 (SK-MEL-5 melanoma) [µM] | TGI (SK-MEL-5 melanoma) [µM] | GI50 (UO-31 renal) [µM] | TGI (UO-31 renal) [µM]
Cc1ccc(S(=O)(=O)c2ccsc2N)cc1 | 40.7 | > 100 | > 100 | > 100 | > 100 | > 100 | > 100 | > 100 | > 100 | > 100 | > 100 | > 100 | 95.4 | > 100 | 97.7 | > 100 | 66 | > 100 | 47.2 | > 100
C=C1C(=O)O[C@H]2[C@H]1CC/C(COC(=O)/C=C/c1c[nH]c3ccccc13)=C\CC[C@@]1(C)O[C@@H]21 | 0.278 | 1.13 | 0.353 | 2.92 | 0.195 | 0.416 | 0.302 | 1.78 | 0.315 | 1.38 | 0.329 | 1.52 | 0.0332 | 0.123 | 0.229 | 0.569 | 0.208 | 0.516 | 0.157 | 0.294
CC1(C)N=C(N)N=C(N)N1c1ccc(OCCCCNC(=O)c2ccc(S(=O)(=O)F)cc2)c(Cl)c1 | > 100 | > 100 | > 100 | > 100 | 4.19 | > 100 | 21.3 | > 100 | > 100 | > 100 | 0.743 | > 100 | 6.39 | > 100 | 6.21 | > 100 | 5.19 | > 100 | 48.8 | > 100
O=C(Nc1cccc([N+](=O)[O-])c1)c1cc2ccccc2cc1O | 1.41 | 6.19 | 1.24 | 10.4 | 3.09 | > 30.7 | 2.08 | 6.24 | 2.55 | 10.3 | 1.49 | > 30.5 | 0.146 | 1.06 | 2.98 | > 100 | 1.14 | 3.56 | 1.25 | 7.46
N#C/C(=C\c1cccnc1)c1nc2ccccc2o1 | 66.4 | > 100 | > 100 | > 100 | > 100 | > 100 | > 100 | > 100 | > 100 | > 100 | > 100 | > 100 | > 100 | > 100 | > 100 | > 100 | > 100 | > 100 | 43.1 | > 100
COc1ccc(/C=C/c2cnc3ccccc3n2)cc1OC | – | > 100 | – | > 100 | – | > 100 | – | > 100 | – | > 100 | – | > 100 | – | > 100 | – | > 100 | – | > 100 | – | > 100
O=c1[nH]cnc2nc(-c3ccc(N(CCCl)CCCl)cc3)[nH]c12 | 22.2 | 70.3 | 27.2 | > 100 | > 100 | > 100 | > 100 | > 100 | 30.1 | > 100 | > 100 | > 100 | > 100 | > 100 | 28.6 | > 100 | 3.47 | > 100 | 10.4 | 38.3
O=c1oc2cc(OS(=O)(=O)c3ccccc3)ccc2c2c1CCCCC2 | > 100 | > 100 | > 100 | > 100 | 2.84 | > 100 | 4.35 | > 100 | > 100 | > 100 | 2.61 | > 100 | 3.58 | > 100 | > 100 | > 100 | 2.88 | > 100 | 8 | > 100
O=C(O)c1ccc2cccnc2c1O | – | > 92.4 | 0.724 | > 79.8 | 2.43 | > 79 | 1.82 | > 70.3 | 2.14 | > 100 | – | > 100 | 0.93 | > 21.1 | 0.999 | 98.5 | – | – | 1.14 | 8.65
CCC1OC(/C(C)=C/C(C)/C=C/C2C(C)C2/C=C/C2OC(CC(=O)O)CC(O)C2O)CC=C1C (stereo unspecified) | > 50 | > 50 | > 50 | > 50 | > 50 | > 50 | > 50 | > 50 | > 50 | > 50 | > 50 | > 50 | > 50 | > 50 | > 50 | > 50 | > 50 | > 50 | > 50 | > 50
CC(=O)Nc1cc2cc(NS(=O)(=O)c3cc(C(F)(F)F)cc(C(F)(F)F)c3)ccc2oc1=O | – | > 100 | – | > 100 | – | > 100 | – | > 100 | – | > 100 | – | > 100 | – | > 100 | – | > 100 | – | > 100 | – | > 100
Cc1[nH]n(-c2ccccc2)c(=O)c1C(=O)c1ccccc1 | > 6.04 | > 25 | > 25 | > 25 | > 25 | > 25 | > 25 | > 25 | > 25 | > 25 | 19.7 | > 25 | > 25 | > 25 | > 25 | > 25 | > 25 | > 25 | > 25 | > 25
N#Cc1ccc2c(c1)C(=O)c1c-2n(CCCN=[N+]=[N-])c(=O)c2cc([N+](=O)[O-])ccc12 | > 50 | > 50 | > 50 | > 50 | 32.1 | > 50 | 1.8 | 9 | > 50 | > 50 | > 50 | > 50 | 21.3 | > 50 | 5.03 | > 50 | > 50 | > 50 | 13.1 | > 50
